Data: US20060235076A1, “Medicinal composition for treating infection with drug-resistant staphylococcus aureus” (priority 2003, published 2006)
In brackets after ≈: the same amount, converted by molar mass. Where two headings read alike, the source gives them in different places.

System: MRSA and MSSA
Experiment: Antibacterial activity of gallic acid, various gallates and multivalent phenol derivatives alone (agar plate dilution method, MIC)
Assay type: cell-based, Staphylococcus aureus
Conditions: Staphylococcus aureus
Experimental: According to the agar plate dilution method defined by Japan Society of Chemotherapy, MIC (Minimum inhibitory concentration) was determined. CAMHA was prepared by adding 50 mg/l of Ca-ion, 25 mg/l of Mg-ion, and 2% of NaCl to Mueller-Hinton II Agar (MHA), and it was used as a medium for use in the measurement of sensitivity. The bacterial liquid was incubated at 37° C. overnight and diluted to 10^6 CFU/ml with saline.
MIC for gallic acid, various gallates and multivalent phenol derivatives alone with MRSA and MSSA were determined as described in experiment 2.

[1] = ATCC 6538 / MRSA / MSSA, ATCC6538, read-out: MIC alone
[2] = MSSA #1003, read-out: MIC alone
[3] = MSSA #1010, read-out: MIC alone
[4] = MSSA #1020, read-out: MIC alone
[5] = MSSA #1023, read-out: MIC alone
[6] = MSSA #1029, read-out: MIC alone
[7] = MSSA #1032, read-out: MIC alone
[8] = compound alone, over all strains of Table 3-1, read-out: MIC50

Which results are given for `O=C(O)c1cc(O)c(O)c(O)c1` [Gallic acid, gallic acid, reference compound]?
MIC [1]: 62.5 µg/mL (≈ 367 µM); MIC (COL, read-out: MIC alone): 62.5 µg/mL (≈ 367 µM); MIC (MRSA #1, read-out: MIC alone): 31.3 µg/mL (≈ 184 µM); MIC (MRSA #2, read-out: MIC alone): 62.5 µg/mL (≈ 367 µM); MIC (MRSA #3, read-out: MIC alone): 31.3 µg/mL (≈ 184 µM); MIC (MRSA #4, read-out: MIC alone): 62.5 µg/mL (≈ 367 µM); MIC (MRSA #5, read-out: MIC alone): 31.3 µg/mL (≈ 184 µM); MIC (MRSA #6, read-out: MIC alone): 31.3 µg/mL (≈ 184 µM); MIC (MRSA #7, read-out: MIC alone): 62.5 µg/mL (≈ 367 µM); MIC (MRSA #8, read-out: MIC alone): 31.3 µg/mL (≈ 184 µM); MIC (MRSA #9, read-out: MIC alone): 31.3 µg/mL (≈ 184 µM); MIC (MRSA #10, read-out: MIC alone): 31.3 µg/mL (≈ 184 µM); MIC (MRSA #12, read-out: MIC alone): 62.5 µg/mL (≈ 367 µM); MIC (MRSA #16, read-out: MIC alone): 31.3 µg/mL (≈ 184 µM); MIC (MRSA #17, read-out: MIC alone): 62.5 µg/mL (≈ 367 µM); MIC (MRSA #18, read-out: MIC alone): 62.5 µg/mL (≈ 367 µM); MIC (MRSA #20, read-out: MIC alone): 62.5 µg/mL (≈ 367 µM); MIC (MRSA #21, read-out: MIC alone): 62.5 µg/mL (≈ 367 µM); MIC (MRSA #22, read-out: MIC alone): 62.5 µg/mL (≈ 367 µM); MIC (MRSA #24, read-out: MIC alone): 62.5 µg/mL (≈ 367 µM); MIC [2]: 62.5 µg/mL (≈ 367 µM); MIC [3]: 62.5 µg/mL (≈ 367 µM); MIC [4]: 62.5 µg/mL (≈ 367 µM); MIC [5]: 31.3 µg/mL (≈ 184 µM); MIC [6]: 31.3 µg/mL (≈ 184 µM); MIC [7]: 31.3 µg/mL (≈ 184 µM); MIC50 [8]: 62.5 µg/mL (≈ 367 µM)

Which MIC50 does the source give for `CC(C)CCOC(=O)c1ccc(O)cc1` [Isoamyl 4-hydroxybenzoate] here?
The MIC50 was 62.5 µg/mL (≈ 300 µM).

What about the MIC (ATCC 6538 / MRSA / MSSA) of the same molecule?
Its MIC is 62.5 µg/mL (≈ 300 µM).

And the MIC (COL, compound alone, read-out: MIC)?
Its MIC is 62.5 µg/mL (≈ 300 µM).

What about the MIC (MRSA #1, compound alone, read-out: MIC) of the same molecule?
The MIC was 62.5 µg/mL (≈ 300 µM).

And the MIC (MRSA #2, compound alone, read-out: MIC)?
Its MIC is 62.5 µg/mL (≈ 300 µM).

What about the MIC (MRSA #3, compound alone, read-out: MIC) of the same molecule?
Its MIC is 62.5 µg/mL (≈ 300 µM).

What about the MIC (MRSA #4, compound alone, read-out: MIC) of the same molecule?
Its MIC is 62.5 µg/mL (≈ 300 µM).

What about the MIC (MRSA #5, compound alone, read-out: MIC) of the same molecule?
The MIC was 62.5 µg/mL (≈ 300 µM).

What about the MIC (MRSA #6, compound alone, read-out: MIC) of the same molecule?
Its MIC is 62.5 µg/mL (≈ 300 µM).

And the MIC (MRSA #7, compound alone, read-out: MIC)?
Its MIC is 62.5 µg/mL (≈ 300 µM).

And the MIC (MRSA #8, compound alone, read-out: MIC)?
Its MIC is 62.5 µg/mL (≈ 300 µM).

What about the MIC (MRSA #9, compound alone, read-out: MIC) of the same molecule?
The MIC was 62.5 µg/mL (≈ 300 µM).

What about the MIC (MRSA #10, compound alone, read-out: MIC) of the same molecule?
Its MIC is 31.3 µg/mL (≈ 150 µM).

What about the MIC (MRSA #12, compound alone, read-out: MIC) of the same molecule?
Its MIC is 62.5 µg/mL (≈ 300 µM).

What about the MIC (MRSA #16, compound alone, read-out: MIC) of the same molecule?
The MIC was 62.5 µg/mL (≈ 300 µM).

And the MIC (MRSA #17, compound alone, read-out: MIC)?
The MIC was 62.5 µg/mL (≈ 300 µM).

What about the MIC (MRSA #18, compound alone, read-out: MIC) of the same molecule?
The MIC was 62.5 µg/mL (≈ 300 µM).

And the MIC (MRSA #20, compound alone, read-out: MIC)?
The MIC was 62.5 µg/mL (≈ 300 µM).

And the MIC (MRSA #21, compound alone, read-out: MIC)?
The MIC was 62.5 µg/mL (≈ 300 µM).

What about the MIC (MRSA #22, compound alone, read-out: MIC) of the same molecule?
The MIC was 62.5 µg/mL (≈ 300 µM).

What about the MIC (MRSA #24, compound alone, read-out: MIC) of the same molecule?
The MIC was 62.5 µg/mL (≈ 300 µM).

And the MIC (MSSA #1003, compound alone, read-out: MIC)?
The MIC was 62.5 µg/mL (≈ 300 µM).

And the MIC (MSSA #1010, compound alone, read-out: MIC)?
The MIC was 62.5 µg/mL (≈ 300 µM).

And the MIC (MSSA #1020, compound alone, read-out: MIC)?
The MIC was 62.5 µg/mL (≈ 300 µM).

And the MIC (MSSA #1023, compound alone, read-out: MIC)?
Its MIC is 62.5 µg/mL (≈ 300 µM).

And the MIC (MSSA #1029, compound alone, read-out: MIC)?
The MIC was 62.5 µg/mL (≈ 300 µM).

What about the MIC (MSSA #1032, compound alone, read-out: MIC) of the same molecule?
The MIC was 62.5 µg/mL (≈ 300 µM).

With `COC(=O)c1cc(O)c(O)c(O)c1` [Methyl gallate, methyl gallate] as the molecule, how does the MIC [1] read?
The MIC was 250 µg/mL (≈ 1360 µM).

And the MIC (COL, read-out: MIC alone)?
Its MIC is 250 µg/mL (≈ 1360 µM).

And the MIC (MRSA #1, read-out: MIC alone)?
The MIC was 250 µg/mL (≈ 1360 µM).

What about the MIC (MRSA #2, read-out: MIC alone) of the same molecule?
Its MIC is 125 µg/mL (≈ 679 µM).

What about the MIC (MRSA #3, read-out: MIC alone) of the same molecule?
Its MIC is 250 µg/mL (≈ 1360 µM).

And the MIC (MRSA #4, read-out: MIC alone)?
The MIC was 125 µg/mL (≈ 679 µM).

What about the MIC (MRSA #5, read-out: MIC alone) of the same molecule?
The MIC was 250 µg/mL (≈ 1360 µM).

What about the MIC (MRSA #6, read-out: MIC alone) of the same molecule?
The MIC was 125 µg/mL (≈ 679 µM).

And the MIC (MRSA #7, read-out: MIC alone)?
The MIC was 250 µg/mL (≈ 1360 µM).

What about the MIC (MRSA #8, read-out: MIC alone) of the same molecule?
The MIC was 250 µg/mL (≈ 1360 µM).

What about the MIC (MRSA #9, read-out: MIC alone) of the same molecule?
The MIC was 62.5 µg/mL (≈ 339 µM).

What about the MIC (MRSA #10, read-out: MIC alone) of the same molecule?
Its MIC is 62.5 µg/mL (≈ 339 µM).

And the MIC (MRSA #12, read-out: MIC alone)?
Its MIC is 250 µg/mL (≈ 1360 µM).

What about the MIC (MRSA #16, read-out: MIC alone) of the same molecule?
The MIC was 125 µg/mL (≈ 679 µM).

What about the MIC (MRSA #17, read-out: MIC alone) of the same molecule?
Its MIC is 125 µg/mL (≈ 679 µM).

And the MIC (MRSA #18, read-out: MIC alone)?
The MIC was 125 µg/mL (≈ 679 µM).

And the MIC (MRSA #20, read-out: MIC alone)?
Its MIC is 250 µg/mL (≈ 1360 µM).

And the MIC (MRSA #21, read-out: MIC alone)?
Its MIC is 250 µg/mL (≈ 1360 µM).

And the MIC (MRSA #22, read-out: MIC alone)?
The MIC was 250 µg/mL (≈ 1360 µM).

And the MIC (MRSA #24, read-out: MIC alone)?
The MIC was 250 µg/mL (≈ 1360 µM).

And the MIC [2]?
The MIC was 250 µg/mL (≈ 1360 µM).

What about the MIC [3] of the same molecule?
The MIC was 250 µg/mL (≈ 1360 µM).

What about the MIC [4] of the same molecule?
Its MIC is 250 µg/mL (≈ 1360 µM).

And the MIC [5]?
The MIC was 125 µg/mL (≈ 679 µM).

And the MIC [6]?
The MIC was 62.5 µg/mL (≈ 339 µM).

What about the MIC [7] of the same molecule?
Its MIC is 250 µg/mL (≈ 1360 µM).

And the MIC50 [8]?
Its MIC50 is 250 µg/mL (≈ 1360 µM).
